Earlier results, collected in patent publication US6506736B1, “Method for obtaining and using a combination of a purine nucleotide and nitrogen monoxide donor for treating sexual dysfunction” (priority 1998, dated 2003).

How the values were obtained:
[1] = test system: erectile dysfunction; conditions: 2800 mg L-arginine per day
[2] = test system: erection; conditions: dogs; intravenous injection

SMILES | cases with favorable effect on erectile dysfunction [1] | induction of erection [2]
N=C(N)NCCC[C@H](N)C(=O)O [L-arginine] | approximately 40% | –
Nc1ncnc2c1ncn2[C@@H]1O[C@H](COP(=O)(O)OP(=O)(O)OP(=O)(O)O)[C@@H](O)[C@H]1O [adenosine triphosphate] | – | induces erection
